Data published in patent publication EP2711009A1, “Compounds for use in treating or preventing primary and metastatic breast and prostate cancer” (Institut Univ. de Ciència i Tecnologia, S.A., priority 2012, dated 2014).
Read-outs that look alike come from different tables or passages of the source.

Columns and labels:
Type in all cases: cell-based
[1] = test system: PC3M prostate cancer cells; assay: WST-1 tetrazolium dye proliferation assay, PC3M; settings: for inhibition at 1 µM: Homo sapiens, PC-3M, 120 h, read-out: proliferation inhibitory effect compared with 0.1% DMSO vehicle control group; for proliferation inhibitory effect compared with Gemcitabine: relative to Gemcitabine (= 0)
Experimental: (§1) Determination of the ability of compound of formula (I) and combinations between compound of formula (I) and certain therapeutic compounds described herein to inhibit the proliferation of target cells was assayed in vitro against breast and prostate tumour cells.
(§2) MCF-7 and LNCaP cells were purchased from ATCC. MDA-MB-231(SA) cells were obtained from Professor Theresa Guise. PNT1A cells were purchased from ECACC. The cells were grown in a subconfluent condition to maintain a logarithmic growth phase. The cells were dislodged for passage using trypsin-EDTA.
(§3) The proliferation of the cell lines was evaluated by using the commercial WST-1 proliferation measurement reagent. Cells from exponentially growing cultures were plated on the 96 well plates at the appropriate seeding density in the optimal medium to give logarithmic growth over the course of the assay. The plates with MCF-7, MDA-MB-231(SA), PC3M and PNT1A cells were incubated 24h at 37°C in a humidified CO2 atmosphere to allow for recovery from trypsinization before adding of test and control compounds. 1mM stock solutions were prepared from test compounds in DMSO (dimethylsulfoxide) and stored at -20°C. Control compounds Ara-C and Gemcitabine stock solutions were prepared in sterile water. Each test and control compound was diluted twice the final concentration in appropriate media. Half of the final well volume of each dilution was added in six parallels to plates containing cells. Required volume of DMSO was added into the vehicle and control compound dilutions to achieve the final concentration of 0.1% DMSO in all control and test compound wells. The plates were returned to 37°C in a humified CO2 atmosphere and incubated for 5 days. WST-1 reagent (2-(4-Iodophenyl)-3-(4-nitrophenyl)-5-(2,4-disulfophenyl)-2H-tetrazolium) was added to each well according manufacturer's instructions and the plates were returned to 37°C in a humidified CO2 atmosphere for 2 hours. Following incubation the absorbance at a wavelength of 450nm was measured from each well using a multilabel counter. The absorbance at wavelength 450nm correlates linearly to number of viable cells in the well.
(§4) The means and standard deviations for parallel samples were calculated and plotted as a graph.

[2] = test system: PNT1A immortalized normal prostate cells; assay: WST-1 tetrazolium dye proliferation assay, PNT1A normal cells; settings: Homo sapiens, 120 h, read-out: proliferation inhibitory effect compared with 0.1% DMSO vehicle control group
Experimental: as §1, §2, §3, §4

[3] = test system: MDA-MB-231(SA) breast cancer cells; assay: WST-1 tetrazolium dye proliferation assay, MDA-MB-231(SA); settings: for inhibition at 1 µM: Homo sapiens, read-out: proliferation inhibitory effect compared with 0.1% DMSO vehicle control group; for proliferation inhibitory effect compared with Gemcitabine: relative to Gemcitabine (= 0), negative = less inhibition than Gemcitabine
Experimental: as §1, §2, §3, §4

[4] = test system: pancreatic cancer cells; assay: Effect on pancreatic cancer cells (no method given); settings: other type of cancer cells such as pancreatic cancer cells
[5] = PNT1A immortalized normal prostate cell line, 5 days incubation, mean±SD, concentration not given (primary screen 1 microM)

| SMILES | inhibition at 1 µM [1] | inhibition at 1 µM [2, 5] | inhibition at 1 µM ([3]; MDA-MB-231, 120 h) | proliferation inhibitory effect compared with Gemcitabine ([1]; PC3M) | inhibition at 1 µM ([2]; PNT1A) | proliferation inhibitory effect compared with Gemcitabine ([3]; MDA-MB-231(SA)) | effect on pancreatic cancer cells [4] | inhibition at 1 µM ([1]; PC3M, 5 days incubation, mean±SD, concentration not given (primary screen 1 microM)) | inhibition at 1 µM ([3]; 120 h, MDA-MB-231(SA), 5 days incubation, mean±SD, concentration not given (primary screen 1 microM)) |
| --- | --- | --- | --- | --- | --- | --- | --- | --- | --- |
| Nc1ccn([C@@H]2O[C@H](CO)[C@@H](O)[C@@H]2O)c(=O)n1 [Ara-C] | 72.6 ± 3.5% | 66.5 ± 1.8% | 80.4 ± 2.5% | – | – | – | – | – | – |
| Nc1ncnc2[nH]ncc12 [Compound A, 4-Aminopyrazolo[3,4-d]pyrimidine] | – | – | – | 70.1±2.7% | – | – | – | – | – |
| CCSc1ncnc2c1ncn2[C@@H]1O[C@H](CO)[C@@H](O)[C@H]1O [Compound I, 6-(Ethylthio)inosine] | 73.6 ± 5.5% | – | 93.4 ± 1.3% | 26.6±15.4% | 26.2 ± 7.7% | 11.7±18.0% | no effect was detected | – | – |
| O=c1[nH]c(=O)n([C@H]2C[C@H](O)[C@@H](CO)O2)cc1F [Floxuridine] | – | 88.3 ± 0.6% | – | 38.9±9.5% | – | -136.4±34.6% | – | 78 ± 3.4% | 82.4 ± 2.6% |
| Nc1ccn([C@@H]2O[C@H](CO)[C@@H](O)C2(F)F)c(=O)n1 [Gemcitabine, 2',2'-difluorodeoxycytidine] | 67.5 ± 7.2% | 98.8 ± 0.3% | 93.3 ± 0.9% | 0% | – | 0% | – | – | – |
